What was measured:
K562 human BC-CML cells = assay: Colony formation assay, K562 cells; assay type: cell-based; details: for leukemic colony formation: K562, Gabapentin in combination with Imatinib, 300 cells per well, scored on day 5, FIG. 14A
Description: BCAT1 inhibition by Gabapentin is shown in FIG. 14A, leukemic colony formation by human blast crisis CML was attenuated in combination with the tyrosine kinase inhibitor Imatinib. […] Three hundred cells were plated per well in triplicate, and colonies were scored on day 5 (error bars indicates s.e.m. *p<0.05, **p<0.01). Inhibition of leukemic colony formation by gabapentin (Gbp) and its structural analogs was also investigated (FIG. 14B). The colony-forming ability of K562 human CML cells treated with the indicated chemicals was investigated. One hundred fifty cells were plated per well in triplicate, and colonies were scored on day 14 (error bars indicates s.e.m. ***p<0.001 compared with the vehicle control).
(§1) The human BC-CML cell line K562, the human acute leukemia cell lines MV4-11 and U937 were maintained in Roswell Park Memorial Institute 1640 medium (RPMI-1640) with 10% FBS, 100 IU/ml penicillin and 100 μg/ml streptomycin. The human acute promyelocytic leukemia cell line HL60 was maintained in RPMI supplemented with 20% FBS. All human cell lines were obtained from ATCC, and cell line authentication testing was performed by ATCC-standardized STR analysis to verify their identity in July 2016. For the colony forming assays, the cells were transduced with lentiviral shRNA and plated in triplicate in 1.2% methylcellulose medium (R&D systems) supplemented with 100 IU/ml penicillin and 100 μg/ml streptomycin, 10% FBS. Where indicated, either BCAAs (L-Leucine, L-Valine, L-Isoleucine, 4 mM each, Sigma-Aldrich), L-alanyl-L-glutamine (4 mM, GlutaMax™, Life Technologies), rapamycin (50 nM, Tocris) or gabapentin (Gbp; Tokyo Chemical Industry Co.) was added to the medium. Gbp was freshly dissolved in PBS before use. Colonies were scored on days 9 to 14. […] Colonies were scored on days 7 to 10.

[1] = test system: intracellular BCAAs in K562 cells; assay: Intracellular amino acid quantification in K562 cells; assay type: cell-based, human; details: compared with the controls, FIGS. 12A-B
Description: Leukemia cells or peripheral blood samples drawn from mice bearing myeloid leukemia were used for amino acid and keto acid analysis by high-performance liquid chromatography (HPLC)-fluorescence detection, as described^32-34. In brief, two hundred thousand live leukemia cells per sample were sorted and washed twice with ice-cold PBS to remove media components prior to amino acid extraction. The blood plasma was prepared by centrifugation of the peripheral blood samples at 2,000×g at 4° C. for 10 min. […] For amino acid quantification, the dried samples were treated with the amine-reactive 4-fluoro-7-nitro-2,1,3-benzoxadizole (NBD-F) to derivatize the amino acids. […] The gradient conditions were as follows: t=0 min, 10% B; t=20 min, 50% B; and t=30 min, 100% B. For NBD-Asn, Ser, Thr, Gln and Phe analysis, 25 mM citrate buffer containing 25 mM sodium perchlorate (pH 4.4) was used as the mobile phase A. NBD-amino acids were detected with excitation and emission wavelengths of 470 and 530 nm, respectively. For keto acid quantification, dried samples were treated with o-phenylenediamine (OPD) to derivatize alpha-keto acids, followed by liquid-liquid extraction with ethyl acetate. […] The fluorescence detection was carried out at the emission wavelength of 410 nm with excitation of 350 nm.

BCAT1 = target: T1, BCAT1 (Homo sapiens, UniProt P54687); details: literature reference 7; cited from earlier work
T1 sequence (P54687 1-386): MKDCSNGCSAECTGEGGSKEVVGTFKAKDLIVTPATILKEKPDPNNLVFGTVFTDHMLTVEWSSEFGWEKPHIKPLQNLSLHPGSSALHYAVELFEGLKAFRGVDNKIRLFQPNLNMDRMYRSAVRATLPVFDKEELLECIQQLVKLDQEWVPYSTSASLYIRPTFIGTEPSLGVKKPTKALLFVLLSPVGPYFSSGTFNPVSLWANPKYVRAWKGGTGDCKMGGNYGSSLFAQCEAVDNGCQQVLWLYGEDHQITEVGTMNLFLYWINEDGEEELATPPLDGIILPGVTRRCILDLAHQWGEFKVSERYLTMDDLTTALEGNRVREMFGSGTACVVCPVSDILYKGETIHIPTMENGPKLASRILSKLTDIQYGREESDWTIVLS

[2] = test system: human AML cell lines (MV4-11, U937, HL60); assay: Colony formation assay, human AML cell lines; assay type: cell-based; details: FIG. 11G-I
Description: as §1

normal HSPCs = assay: Colony formation assay, normal HSPCs (LSK cells); assay type: cell-based, mouse; details: FIGS. 9E-F
Description: as §1

[3] = test system: S6 kinase (pS6K), a downstream target of mTORC1 kinase; assay: Western blotting for phospho-S6 kinase in K562 cells; assay type: cell-based, human; details: shBCAT1-d or 20 mM Gbp for 24 h, FIG. 3J
BCAT2 = target: T2, BCAT2 (Homo sapiens, UniProt O15382); details: literature reference 7; cited from earlier work
T2 sequence (O15382 28-392): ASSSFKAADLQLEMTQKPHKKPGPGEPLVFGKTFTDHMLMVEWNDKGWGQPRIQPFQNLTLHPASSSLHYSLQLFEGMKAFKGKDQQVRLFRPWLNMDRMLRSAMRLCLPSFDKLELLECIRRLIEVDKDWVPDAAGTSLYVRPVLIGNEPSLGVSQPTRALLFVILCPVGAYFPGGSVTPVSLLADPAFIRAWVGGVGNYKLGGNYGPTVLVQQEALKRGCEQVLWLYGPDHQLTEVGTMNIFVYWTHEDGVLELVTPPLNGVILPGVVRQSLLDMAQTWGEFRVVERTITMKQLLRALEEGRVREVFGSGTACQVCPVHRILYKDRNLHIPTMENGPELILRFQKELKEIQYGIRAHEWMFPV

[4] = in water and in both basic and acidic aqueous solutions; cited from earlier work
[5] = test system: primary human BC-CML cells; assay: Colony formation assay, patient-derived primary BC-CML cells; assay type: cell-based; details: patient-derived primary leukemia cells; FIGS. 3D-E, 11E-F
Description: (§2) Patient blood samples were obtained at the Institute of Medical Science, the University of Tokyo (IMSUT) Hospital with written informed consent according to the procedures approved by the Institutional Review Board. Mononuclear cells from the subjects were viably frozen and stored in liquid nitrogen. For in vitro colony formation with BCAT1 knockdown, primary hCD34^+ cells sorted from patient bone marrow samples were cultured in IMDM supplemented with 10% FBS, 100 IU/ml penicillin and 100 μg/ml streptomycin, 55 μM 2-mercaptoethanol, SCF, IL-3, IL-6, FLT3L and TPO. After 24 h of culture, the cells were transduced with lentiviral shRNA (cloned in FG12-UbiC-GFP), and the GFP-positive infected cells were sorted at 48 h, and 5,000-50,000 cells were plated in complete methylcellulose medium (Methocult H4435, StemCell Technologies). For the colony forming assays with Gbp, sorted hCD34^+ cells from the primary patient specimens were cultured in complete methylcellulose medium with the indicated concentrations of Gbp. Colonies were scored on days 9 to 14.

primary human AML cells = assay: Colony formation assay, primary de novo AML cells; assay type: cell-based; details: FIG. 3G
Description: as §2

[6] = test system: primary Lin- BC-CML cells; assay: Colony formation assay, primary Lin- BC-CML cells; assay type: cell-based; details: primary mouse Lin- BC-CML cells plated with Gbp; FIG. 2B
Description: as §1

Row | Structure (SMILES) | leukemic colony formation (K562 human BC-CML cells) | colony-forming ability (K562 human BC-CML cells; K562 human BC-CML, FIG. 11A-D) | intracellular concentrations of all three BCAAs [1] | inhibition of the transaminase activity of BCAT1 (BCAT1) | clonal growth [2] | colony-forming ability of normal HSPCs (normal HSPCs) | phosphorylation of S6 kinase (pS6K) [3] | inhibition of the transaminase activity of BCAT2 (BCAT2) | solubility [4] | colony-forming ability [5] | clonal growth (primary human AML cells) | clonogenic growth [6] | colony size [6]
1 | NCC1(CC(=O)O)CCCCC1 [Gbp, 1-(aminomethyl)cyclohexane acetic acid] | attenuated | markedly inhibited | significantly reduced | specifically and competitively inhibit | effectively inhibited | only minimally affected | significantly reduced | but not that of BCAT2 | freely soluble | markedly inhibited | effectively inhibited | dose-dependent impairment | formed smaller colonies
2 | Cc1ccc(NC(=O)c2ccc(CN3CCN(C)CC3)cc2)cc1Nc1nccc(-c2cccnc2)n1 [Imatinib] | attenuated | – | – | – | – | – | – | – | – | – | – | – | –

— patent US20190240176A1, “METHODS OF TREATMENT FOR MYELOID LEUKEMIA” (The University of Georgia Research Foundation, Inc., priority 2016, published 2019)
